Measurements reported in PubChem BioAssay (NCI).
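96-well plates; 48 h exposure; 5 concentrations. Endpoints by linear interpolation between flanking doses. Not reached: highest tested concentration assigned. GI50: concentration for 50% inhibition of growth. The concentration for full growth arrest is given as TGI.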

Columns and labels:
Assay in all cases: growth of human tumour cells (NCI), 48 h
T-47D breast = system: T-47D breast
OVCAR-3 ovarian = system: OVCAR-3 ovarian
SW-620 colon = system: SW-620 colon
A498 renal = system: A498 renal
OVCAR-4 ovarian = system: OVCAR-4 ovarian
RPMI-8226 leukemia = system: RPMI-8226 leukemia
K-562 leukemia = system: K-562 leukemia
MOLT-4 leukemia = system: MOLT-4 leukemia
SK-OV-3 ovarian = system: SK-OV-3 ovarian
LOX IMVI melanoma = system: LOX IMVI melanoma
HCC-2998 colon = system: HCC-2998 colon
NCI-H460 lung = system: NCI-H460 lung
CCRF-CEM leukemia = system: CCRF-CEM leukemia
SNB-19 CNS = system: SNB-19 CNS
MDA-MB-435 = system: MDA-MB-435
SK-MEL-2 melanoma = system: SK-MEL-2 melanoma
NCI/ADR-RES ovarian = system: NCI/ADR-RES ovarian
PC-3 prostate = system: PC-3 prostate
OVCAR-8 ovarian = system: OVCAR-8 ovarian
MALME-3M melanoma = system: MALME-3M melanoma
UO-31 renal = system: UO-31 renal
SF-539 CNS = system: SF-539 CNS
SR leukemia = system: SR leukemia
786-0 renal = system: 786-0 renal
CAKI-1 renal = system: CAKI-1 renal
NCI-H522 lung = system: NCI-H522 lung
SN12C renal = system: SN12C renal
M14 melanoma = system: M14 melanoma
HS 578T breast = system: HS 578T breast
IGROV1 ovarian = system: IGROV1 ovarian
SF-295 CNS = system: SF-295 CNS
HL-60(TB) leukemia = system: HL-60(TB) leukemia
SK-MEL-28 melanoma = system: SK-MEL-28 melanoma
TK-10 renal = system: TK-10 renal
OVCAR-5 ovarian = system: OVCAR-5 ovarian
UACC-257 melanoma = system: UACC-257 melanoma
SNB-75 CNS = system: SNB-75 CNS
NCI-H226 lung = system: NCI-H226 lung
SK-MEL-5 melanoma = system: SK-MEL-5 melanoma
EKVX NSCLC = system: EKVX NSCLC
HT29 colon = system: HT29 colon
DU-145 prostate = system: DU-145 prostate
MDA-MB-231 breast = system: MDA-MB-231 breast
HOP-62 NSCLC = system: HOP-62 NSCLC
HCT-116 colon = system: HCT-116 colon
HCT-15 colon = system: HCT-15 colon
HOP-92 NSCLC = system: HOP-92 NSCLC
U251 CNS = system: U251 CNS
KM12 colon = system: KM12 colon
UACC-62 melanoma = system: UACC-62 melanoma
A549 NSCLC = system: A549 NSCLC
MCF7 breast = system: MCF7 breast
NCI-H23 lung = system: NCI-H23 lung
COLO 205 colon = system: COLO 205 colon
SF-268 CNS = system: SF-268 CNS
ACHN renal = system: ACHN renal
BT-549 breast = system: BT-549 breast

## O=C(CCCCCCNC(=O)C(O)(O)C(F)(F)F)Nc1ccc(-c2ccccc2)cc1
T-47D breast
  GI50: 2.96 µM
  TGI: 25.3 µM
OVCAR-3 ovarian
  GI50: 3.39 µM
  TGI: 8.2 µM
SW-620 colon
  GI50: 1.8 µM
  TGI: 7.24 µM
A498 renal
  GI50: 0.7 µM
  TGI: 6.41 µM
OVCAR-4 ovarian
  GI50: 11 µM
  TGI: > 33.2 µM
RPMI-8226 leukemia
  GI50: 2.32 µM
  TGI: > 33.2 µM
K-562 leukemia
  GI50: 1.58 µM
  TGI: > 33.2 µM
MOLT-4 leukemia
  GI50: 1.32 µM
  TGI: > 33.2 µM
SK-OV-3 ovarian
  GI50: 4.31 µM
  TGI: 21.6 µM
LOX IMVI melanoma
  GI50: 1.96 µM
  TGI: 6.29 µM
HCC-2998 colon
  GI50: 4.91 µM
  TGI: 9.88 µM
NCI-H460 lung
  GI50: 3.24 µM
  TGI: 11.4 µM
CCRF-CEM leukemia
  GI50: 1.84 µM
  TGI: > 33.2 µM
SNB-19 CNS
  GI50: 4.63 µM
  TGI: 10.3 µM
MDA-MB-435
  GI50: 3.55 µM
  TGI: 32.4 µM
SK-MEL-2 melanoma
  GI50: 3.31 µM
  TGI: 8.97 µM
NCI/ADR-RES ovarian
  GI50: 3.99 µM
  TGI: 12.4 µM
PC-3 prostate
  GI50: 3.78 µM
  TGI: 19 µM
OVCAR-8 ovarian
  GI50: 3.25 µM
  TGI: > 33.2 µM
MALME-3M melanoma
  GI50: 1.6 µM
  TGI: 10.2 µM
UO-31 renal
  GI50: 3.11 µM
  TGI: 8.88 µM
SF-539 CNS
  GI50: 4.61 µM
  TGI: 13 µM
SR leukemia
  GI50: 1.43 µM
  TGI: > 33.2 µM
786-0 renal
  GI50: 4.34 µM
  TGI: 11.7 µM
CAKI-1 renal
  GI50: 5.74 µM
  TGI: 17.5 µM
NCI-H522 lung
  GI50: 3.81 µM
  TGI: 20.5 µM
SN12C renal
  GI50: 4.21 µM
  TGI: 16 µM
M14 melanoma
  GI50: 3.82 µM
  TGI: 12.5 µM
HS 578T breast
  GI50: 4.15 µM
  TGI: 25.3 µM
IGROV1 ovarian
  GI50: 3.9 µM
  TGI: 10.6 µM
SF-295 CNS
  GI50: 2.53 µM
  TGI: 7.49 µM
HL-60(TB) leukemia
  GI50: 2.64 µM
  TGI: > 33.2 µM
SK-MEL-28 melanoma
  GI50: 2.09 µM
  TGI: 8.52 µM
TK-10 renal
  GI50: 1.63 µM
  TGI: > 33.2 µM
OVCAR-5 ovarian
  GI50: 1.62 µM
  TGI: 9.14 µM
UACC-257 melanoma
  GI50: 4.67 µM
  TGI: 14.5 µM
SNB-75 CNS
  GI50: 2.92 µM
  TGI: > 33.2 µM
NCI-H226 lung
  GI50: 7.55 µM
  TGI: 26.6 µM
SK-MEL-5 melanoma
  GI50: 1.94 µM
  TGI: 6.27 µM
EKVX NSCLC
  GI50: 5.26 µM
  TGI: > 33.2 µM
HT29 colon
  GI50: 3.77 µM
  TGI: > 33.2 µM
DU-145 prostate
  GI50: 4.78 µM
  TGI: 32.7 µM
MDA-MB-231 breast
  GI50: 2.84 µM
  TGI: 10.7 µM
HOP-62 NSCLC
  GI50: 4.76 µM
  TGI: 29.4 µM
HCT-116 colon
  GI50: 1.27 µM
  TGI: 7.08 µM
HCT-15 colon
  GI50: 4.73 µM
  TGI: 9.8 µM
HOP-92 NSCLC
  GI50: 0.74 µM
  TGI: 4.18 µM
U251 CNS
  GI50: 3.62 µM
  TGI: 10.9 µM
KM12 colon
  GI50: 3.84 µM
  TGI: 9.23 µM
UACC-62 melanoma
  GI50: 1.31 µM
  TGI: 5.39 µM
A549 NSCLC
  GI50: 6.04 µM
  TGI: 28.8 µM
MCF7 breast
  GI50: 5.57 µM
  TGI: 30 µM
NCI-H23 lung
  GI50: 4.28 µM
  TGI: 13.6 µM
COLO 205 colon
  GI50: 4.03 µM
  TGI: 11.8 µM
SF-268 CNS
  GI50: 5.98 µM
  TGI: 14.3 µM
ACHN renal
  GI50: 2.85 µM
  TGI: 9.22 µM
BT-549 breast
  GI50: 4.21 µM
  TGI: 13.2 µM
